# According to ChEMBL document CHEMBL3632597, “Synthesis and biological evaluation of 5-(fluoro-substituted-6-methylpyridin-2-yl)-4-([1,2,4]triazolo[1,5-a]pyridin-6-yl)imidazoles as inhibitors of transforming growth factor-β type I receptor kinase” (Bioorg Med Chem Lett, 2015):
# Key:
# [1] = target: Mitogen-activated protein kinase 14 (Homo sapiens, UniProt Q16539); assay: Inhibition of human recombinant p38alpha expressed in Escherichia coli using ATF2 as substrate by proprietary radioisotopic protein kinase assay
# [2] = target: T1, TGF-beta receptor type-1 (Homo sapiens, UniProt P36897); assay: Inhibition of human recombinant GST-fused ALK5 expressed in Sf9 insect cells using casein as substrate by proprietary radioisotopic protein kinase assay
# T1 sequence (P36897 whole entry): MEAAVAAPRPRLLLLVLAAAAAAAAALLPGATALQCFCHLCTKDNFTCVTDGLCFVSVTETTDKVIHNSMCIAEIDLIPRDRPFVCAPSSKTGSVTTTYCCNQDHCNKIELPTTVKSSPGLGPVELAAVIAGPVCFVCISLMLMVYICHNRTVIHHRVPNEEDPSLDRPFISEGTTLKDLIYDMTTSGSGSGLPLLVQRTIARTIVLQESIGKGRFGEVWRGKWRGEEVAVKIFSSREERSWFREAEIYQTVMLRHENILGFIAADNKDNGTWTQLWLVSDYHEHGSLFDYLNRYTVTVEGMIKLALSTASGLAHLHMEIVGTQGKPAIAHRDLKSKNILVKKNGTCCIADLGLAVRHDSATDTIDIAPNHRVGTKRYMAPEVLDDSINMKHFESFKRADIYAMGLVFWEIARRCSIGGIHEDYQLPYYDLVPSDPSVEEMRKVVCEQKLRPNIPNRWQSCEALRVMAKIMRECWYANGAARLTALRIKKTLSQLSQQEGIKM
# Sequence of Mitogen-activated protein kinase 14 (Q16539 whole entry, the tested form may be a part): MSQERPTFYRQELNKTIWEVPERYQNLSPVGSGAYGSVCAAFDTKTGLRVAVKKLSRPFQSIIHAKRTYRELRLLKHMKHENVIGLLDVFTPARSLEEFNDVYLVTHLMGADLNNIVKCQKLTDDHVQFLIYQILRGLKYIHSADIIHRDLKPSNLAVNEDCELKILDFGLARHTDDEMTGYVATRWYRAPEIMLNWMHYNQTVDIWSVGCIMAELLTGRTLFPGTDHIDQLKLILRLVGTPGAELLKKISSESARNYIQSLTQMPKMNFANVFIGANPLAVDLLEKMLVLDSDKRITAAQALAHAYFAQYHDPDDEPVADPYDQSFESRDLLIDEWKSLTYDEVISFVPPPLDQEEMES
IC50 [1],IC50 [2],Compound
399 nM,9.76 nM,Cc1ccc(F)c(-c2[nH]c(CNc3ccccc3)nc2-c2ccc3ncnn3c2)n1
766 nM,12.1 nM,Cc1ccc(F)c(-c2[nH]c(CNc3ccccc3F)nc2-c2ccc3ncnn3c2)n1
209 nM,9.23 nM,Cc1ccc(F)c(-c2[nH]c(CNc3cccc(C#N)c3)nc2-c2ccc3ncnn3c2)n1
251 nM,11 nM,Cc1ccc(F)c(-c2[nH]c(CNc3cccc(C(N)=O)c3)nc2-c2ccc3ncnn3c2)n1
171 nM,9.81 nM,C=Cc1cccc(NCc2nc(-c3ccc4ncnn4c3)c(-c3nc(C)ccc3F)[nH]2)c1
> 10000 nM,72.5 nM,Cc1cc(F)cc(-c2[nH]c(CNc3ccccc3)nc2-c2ccc3ncnn3c2)n1
> 10000 nM,41.9 nM,Cc1cc(F)cc(-c2[nH]c(CNc3ccccc3F)nc2-c2ccc3ncnn3c2)n1
2040 nM,9.23 nM,Cc1nc(-c2[nH]c(CNc3ccccc3)nc2-c2ccc3ncnn3c2)ccc1F
3370 nM,12.5 nM,Cc1nc(-c2[nH]c(CNc3ccccc3F)nc2-c2ccc3ncnn3c2)ccc1F
1240 nM,7.68 nM,Cc1nc(-c2[nH]c(CNc3cccc(C#N)c3)nc2-c2ccc3ncnn3c2)ccc1F
1480 nM,10.8 nM,Cc1nc(-c2[nH]c(CNc3cccc(C(N)=O)c3)nc2-c2ccc3ncnn3c2)ccc1F
1810 nM,13.7 nM,C=Cc1cccc(NCc2nc(-c3ccc4ncnn4c3)c(-c3ccc(F)c(C)n3)[nH]2)c1
405 nM,–,Cc1cccc(-c2nn3c(c2-c2ccnc4ccc(C(N)=O)cc24)CCC3)n1 [GALUNISERTIB]
